Test results taken from patent US8969388B1, “Substituted pyrazolone compounds and methods of use” (Calitor Sciences, LLC, priority 2012, dated 2015).

Assays:
c-Met (h) = molecular target: T1, c-Met (h) (Homo sapiens, UniProt P08581); experiment: c-Met (h) kinase assay (IC50); format: biochemical; conditions: cells marked (IC50) in the Kd table
T1 construct: host or cells: E. coli BL21-derived host (T7 phage) or HEK-293
Protocol: (§1) The above assay procedure can be used to determine the IC50 for inhibition and/or the inhibition constant, Ki. The IC50 is defined as the concentration of compound required to reduce the enzyme activity by 50% under the condition of the assay. The IC50 value is estimated by preparing a 10 point curve using a ½ log dilution series (for example, a typical curve may be prepared using the following compound concentrations; 100 μM, 30 μM, 10 μM, 3 μM, 1 μM, 0.3 μM, 0.1 μM, 0.03 μM, 0.01 μM and 0 μM).
(§2) (specific activity approx. 500 cpm/pmol, concentration as required).
(§3) The kinase assays described herein can be performed at Millipore UK Ltd, Dundee Technology Park, Dundee DD2 1SW, UK c-Met (h) Assay.

[1] = Pharmacokinetics after intravenous and oral administration in rats; format: in vivo
Protocol: The compounds disclosed herein are assessed in pharmacokinetic studies in mice, rats, dogs or monkeys. The compounds are administered as a water solution, 2% HPMC+1% TWEEN®80 in water solution, 5% DMSO+5% solutol in saline, 4% MC suspension or capsule. For the intravenous administration, the animals are generally given at 1 or 2 mg/kg dose. For the oral (p.o.) dosing, mice and rats are generally given 5 or 10 mg/kg dose, and dogs and monkeys are generally given 10 mg/kg dose. The blood samples (0.3 mL) are drawn at 0.25, 0.5, 1.0, 2.0, 3.0, 4.0, 6.0, 8.0, 12 and 24 h time points or 0.083, 0.25, 0.5, 1.0, 2.0, 4.0, 6.0, 8.0 and 24 h time points and centrifuged at 3,000 or 4000 rpm for 2 to 10 min. The plasma solutions are collected, stored at −20° C. or −70° C. until analyzed by LC/MS/MS as described above.

KDR (h) = molecular target: T2, KDR (h) (Homo sapiens, UniProt P35968); experiment: KDR (h) (VEGF-R2 (h)) kinase assay (IC50); format: biochemical; conditions: cells marked (IC50) in the Kd table
T2 construct: host or cells: E. coli BL21-derived host (T7 phage) or HEK-293
T2 sequence (P35968 20-1356): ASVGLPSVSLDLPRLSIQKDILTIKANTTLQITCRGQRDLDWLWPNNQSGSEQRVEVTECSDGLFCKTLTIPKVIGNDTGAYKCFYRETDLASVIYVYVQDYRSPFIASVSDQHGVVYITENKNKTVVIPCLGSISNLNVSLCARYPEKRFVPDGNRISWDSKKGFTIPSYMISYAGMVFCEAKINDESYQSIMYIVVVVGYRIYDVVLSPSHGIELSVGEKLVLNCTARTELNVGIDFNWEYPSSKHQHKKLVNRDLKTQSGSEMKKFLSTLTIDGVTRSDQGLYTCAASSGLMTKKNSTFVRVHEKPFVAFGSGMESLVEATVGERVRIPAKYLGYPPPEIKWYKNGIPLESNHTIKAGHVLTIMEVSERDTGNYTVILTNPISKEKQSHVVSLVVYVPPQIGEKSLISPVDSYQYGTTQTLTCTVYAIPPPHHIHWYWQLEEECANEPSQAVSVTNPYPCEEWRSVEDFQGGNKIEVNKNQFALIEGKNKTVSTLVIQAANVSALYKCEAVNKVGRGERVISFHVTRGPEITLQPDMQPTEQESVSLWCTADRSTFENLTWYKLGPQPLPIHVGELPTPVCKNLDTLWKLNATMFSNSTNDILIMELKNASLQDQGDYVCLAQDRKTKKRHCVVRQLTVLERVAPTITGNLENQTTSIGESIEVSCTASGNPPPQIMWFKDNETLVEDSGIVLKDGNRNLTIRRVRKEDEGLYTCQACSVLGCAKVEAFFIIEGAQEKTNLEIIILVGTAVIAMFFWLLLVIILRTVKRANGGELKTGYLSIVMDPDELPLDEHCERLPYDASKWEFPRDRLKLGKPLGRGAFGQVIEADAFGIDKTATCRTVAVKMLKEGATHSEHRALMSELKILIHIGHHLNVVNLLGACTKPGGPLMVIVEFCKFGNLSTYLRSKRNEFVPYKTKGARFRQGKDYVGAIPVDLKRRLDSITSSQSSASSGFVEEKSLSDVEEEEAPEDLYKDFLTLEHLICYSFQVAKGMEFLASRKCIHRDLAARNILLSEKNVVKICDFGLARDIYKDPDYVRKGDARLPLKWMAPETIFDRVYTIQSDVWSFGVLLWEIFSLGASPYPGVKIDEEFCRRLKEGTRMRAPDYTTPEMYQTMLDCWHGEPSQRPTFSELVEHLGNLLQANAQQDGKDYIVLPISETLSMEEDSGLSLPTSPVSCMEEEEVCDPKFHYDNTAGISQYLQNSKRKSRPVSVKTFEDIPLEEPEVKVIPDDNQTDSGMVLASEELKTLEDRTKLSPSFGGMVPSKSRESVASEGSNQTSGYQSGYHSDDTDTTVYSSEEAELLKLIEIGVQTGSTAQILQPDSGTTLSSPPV
Protocol: as §1
KDR (h) (VEGF-R2 (h)) Assay
as §2, §3

[2] = rat, plasma, iv dosing, 2 mg/kg

T1 sequence (P08581 25-1390): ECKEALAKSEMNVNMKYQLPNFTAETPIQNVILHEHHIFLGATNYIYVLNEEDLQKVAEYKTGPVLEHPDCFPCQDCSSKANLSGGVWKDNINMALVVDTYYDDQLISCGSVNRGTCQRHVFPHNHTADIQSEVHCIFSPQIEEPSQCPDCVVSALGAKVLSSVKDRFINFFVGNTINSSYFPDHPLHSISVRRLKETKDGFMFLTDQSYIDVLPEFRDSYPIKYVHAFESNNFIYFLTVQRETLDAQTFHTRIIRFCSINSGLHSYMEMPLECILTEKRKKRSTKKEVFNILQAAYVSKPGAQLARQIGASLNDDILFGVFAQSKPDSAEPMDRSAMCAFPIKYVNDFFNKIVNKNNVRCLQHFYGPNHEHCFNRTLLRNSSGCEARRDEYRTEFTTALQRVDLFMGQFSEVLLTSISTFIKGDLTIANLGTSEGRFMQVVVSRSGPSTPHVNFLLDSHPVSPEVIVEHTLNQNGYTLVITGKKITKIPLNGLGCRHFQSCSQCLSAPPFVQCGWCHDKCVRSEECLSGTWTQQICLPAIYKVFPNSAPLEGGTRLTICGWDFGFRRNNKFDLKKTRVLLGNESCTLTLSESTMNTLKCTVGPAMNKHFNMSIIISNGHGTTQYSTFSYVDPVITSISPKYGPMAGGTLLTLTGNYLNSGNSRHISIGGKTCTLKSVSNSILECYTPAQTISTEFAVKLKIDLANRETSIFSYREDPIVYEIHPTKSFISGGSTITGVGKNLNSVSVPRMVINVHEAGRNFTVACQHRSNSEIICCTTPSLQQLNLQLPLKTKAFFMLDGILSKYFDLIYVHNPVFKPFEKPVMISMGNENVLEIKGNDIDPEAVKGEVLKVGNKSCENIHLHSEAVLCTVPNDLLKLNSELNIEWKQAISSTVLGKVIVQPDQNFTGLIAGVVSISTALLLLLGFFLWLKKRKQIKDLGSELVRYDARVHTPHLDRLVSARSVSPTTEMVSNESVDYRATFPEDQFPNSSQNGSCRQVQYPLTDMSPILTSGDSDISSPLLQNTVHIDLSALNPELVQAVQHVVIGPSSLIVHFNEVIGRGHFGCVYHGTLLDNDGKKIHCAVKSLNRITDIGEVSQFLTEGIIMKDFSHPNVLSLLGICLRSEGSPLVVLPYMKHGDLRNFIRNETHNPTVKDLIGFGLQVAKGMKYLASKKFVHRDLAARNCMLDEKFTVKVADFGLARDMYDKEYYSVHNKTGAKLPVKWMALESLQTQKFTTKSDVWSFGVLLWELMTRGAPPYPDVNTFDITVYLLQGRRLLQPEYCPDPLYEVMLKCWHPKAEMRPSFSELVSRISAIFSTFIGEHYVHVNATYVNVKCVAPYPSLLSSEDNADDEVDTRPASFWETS

- IC50 (c-Met (h)): 84 nM
- clearance (CL) after iv dosing ([1]; iv dosing, 2 mg/kg): 13.3 mL/min/kg
- F ([1]; oral bioavailability, iv dose 2 mg/kg, oral dose not given): 78.1%
- AUC(0-t) [1, 2]: 2510 ng·h/mL
- half-life [1, 2]: 43.2 min
- Vd ([1]; rat, plasma, iv dosing, 2 mg/kg, read-out: Vss): 0.56 L/kg
- IC50 (KDR (h)): > 3000 nM
SMILES: Cc1c(C(=O)Nc2ccc(Oc3ccnc(N)c3)c(F)c2)c(=O)n(-c2ccccc2)n1C [Ex. 22, N-(4-((2-aminopyridin-4-yl)oxy)-3-fluorophenyl)-1,5-dimethyl-3-oxo-2-phenyl-2,3-dihydro-1H-pyrazole-4-carboxamide]
